# Experimental data published in patent EP0089939A1, “Compositions for therapeutic or diagnostic use containing oligosaccharides” (BioCarp AB, priority 1982, dated 1983).
# Columns and labels:
# [1] = tested on: N.gonorrhoeae; test: Inhibition of haemagglutination of human erythrocytes by N. gonorrhoeae; format: cell-based; conditions: Neisseria gonorrhoeae, Erythrocyte; human erythrocytes (O1Rh+); fimbriated N.gonorrhoeae; read after 2-4 hours at room temperature; read-out: Minimum concentration of inhibitor resulting in complete inhibition
# Procedure: (§1) In the test there is used a strain of N. gonorrhoeae (international reference strain 3 from Neisseriaavd. Statens seruminstitutt, Copenhagen, Denmark. and a fresh strain of the same species isolated at the Bacteriological Central Laboratory, Lunds Hospital, Lund, Sweden). The bacteria were cultivated on a special gonococc medium, see Mardh, P.A., Martensson, D, Soltesz, L.V. "An effective, simplified medium for the culture of N. gonorrhoeae". Sex.Trans.Dis. Vol. 5, pp. 10-13, 1978, at + 37°C for 18 hours. The bacterial culture was slurried in PBS, pH 7.2 to a density of 109 bacteria/ml.
# (§2) Haemagglutination was performed using erythrocytes from sheep or man (O1Rh+) which were washed with PBS and suspended to a concentration of 1 % v/w in PBS, pH 7.2. The agglutination tests were-performed so that 25 µl of the bacterial suspension was titrated in PBS by using two-fold […] steps. Then 25 µl of the erythrocyte suspension which had been made 1 % were added. The haemagglutination titre (Hu) was determined after incubating the plates (microtitre plates, Limbo Sc. Comp. Inc.) for 2-4 hours in room temperature.
# (§3) In the haemagglutination-inhibition tests there were used serial dilutions having the relevant inhibitor (50 µl/well) and […] bacterial suspension diluted to contain twice the lowest haemagglutination titre. The plates were incubated for 30 minutes at +37°C, 25 µl of erythrocyte suspension being then added to each well. The result was read after 2-4 hours incubation at room temperature.
# [2] = tested on: N. gonorrhoeae; test: Inhibition of haemagglutination of sheep erythrocytes by N. gonorrhoeae; format: cell-based; conditions: Neisseria gonorrhoeae, Erythrocyte, fimbriated N. gonorrhoeae, read after 2-4 hours at room temperature, read-out: Minimum concentration of inhibitor resulting in complete inhibition of haemagglutination
# Procedure: as §1, §2, §3
# [3] = tested on: N.gonorrhoeae; test: Inhibition of adherence of N. gonorrhoeae to vaginal cells; format: cell-based; conditions: human vaginal cells, 50 cells counted; for reduction of the number of adhering bacteria: 5 mg/ml oligosaccharide
# Procedure: Cells: Vaginal cells from healthy women in fertile age not having used hormonal preparations and werein proliferation phase were tested. Cells were collected from rear vaginal fornix with a wooden spatula and suspended in RPMI 1640 in a concentration of 10^5 cells/ml.
# Gonococci: International reference strain 3 from Neisseriaavd. Statens Seruminstitut, Copenhagen, Denmark, suspended in cell cultivation medaium RPMI 1640 (Flow Ltd.) in a concentration of 10^9 bacteria/ml.
# Oligosaccharides: β-D-Galp-(1-3)- -D-GalNAc-(1-0)-Me (1) β-D-Galp-(1-3)- -D-GalNAc-(1-0)-Me (2)
# (§4) Procedure: 1 ml of […] containing 0 of (1), 5 mg/ml of (1) and 0.5 mg/ml of (1) and 5 mg/ml of (2), respectively, were incubated with 0.5 ml bacterial suspension at 37°C for 30 minutes. Vaginal cells (1 ml) were incubated with the above preincubated bacterial suspensions at 37°C for 45 minutes. The incubated suspensions were filtered through a filter (pore size 12 µ) and washed 3 times with PBS. The filter was pressed against microscope slides for a few seconds, the microscope slides being then fixed in methanol for 10 minutes. The microscope slides were dried in air and coloured with acridine orange for 2 minutes. After washing and drying in air the slides were studied by means of fluorescence microscopy. The number of bacteria adhering per cell was counted. In each test 50 vaginal cells were counted.
# [4] = tested on: N.gonorrhoeae; test: Disinfection: removal of bacteria from an infected surface; conditions: 0.1 percent by weight aqueous solution applied with a cotton pad
# Procedure: By disinfection is here primarily intended removal of bacteria from a surface, for example a wound.
# A 0.1 percent by weight aqueous solution of the compound β-D-Galp-(1-4)-D-GNAc is prepared and applied by means of a cotton pad onto a surface infected by N.gonorrhoeae.
# [5] = tested on: N.meningitidis; test: Inhibition of adherence of N. meningitidis to buccal mucosa cells; format: cell-based; conditions: human buccal mucosa cells, N.meningitidis strain 3K, 45 min
# Procedure: as §4
# The procedure of EXAMPLE 2 was repeated but in this case cells were collected from young healthy women by scraping the Buccal Mucosae with a wooden spatula. The bacterium used was N.meningitidis, international test strain 3K, Statens Seruminstitut, Copenhagen, Denmark.
structure (smiles),measurement,setting,value
CC(=O)N[C@H]1[C@H](O[C@H]2[C@@H](O)[C@@H](CO)O[C@H](O[C@@H]3[C@H](O)[C@@H](O)[C@H](O[C@H]4[C@H](O)[C@@H](O)C(O)O[C@@H]4CO)O[C@@H]3CO)[C@@H]2O)O[C@H](CO)[C@H](O)[C@@H]1O (stereo partly drawn) [β-D-GalNAc-(1-3)-α-D-Galp-(1-4) -β-D-Galp-(1-4)-D-Glc],minimal effective concentration,[1],> 5000 µg/mL
CO[C@H]1O[C@H](CO)[C@H](O)[C@H](O[C@@H]2O[C@H](CO)[C@H](O)[C@H](O)[C@H]2O)[C@H]1NC(C)=O [β-D-Galp-(1-3)-α-D-GalNAc-(1-O)Me],minimal effective concentration,[2],150 µg/mL
OC[C@H]1O[C@@H](OC[C@H]2OC(O)[C@H](O)[C@@H](O)[C@@H]2O)[C@H](O)[C@@H](O)[C@H]1O (stereo partly drawn) [β-D-Galp-(1-6)-D-Glc],minimal effective concentration,[1],> 5000 µg/mL
"CO[C@H]1O[C@H](CO)[C@H](O)[C@H](O[C@@H]2O[C@H](CO)[C@H](O)[C@H](O)[C@H]2O)[C@H]1NC(C)=O [β-D-Galp-(1-3)-α-D-GalNAcp-(1-O)Me, Methyl 2-acetamido-2-deoxy-3-0-(β-D-galactopyranosyl)-a--D-galactopyranoside]",minimal effective concentration,[1],200 µg/mL
"COC1O[C@H](CO)[C@H](O)[C@H](O[C@@H]2O[C@H](CO)[C@H](O)[C@H](O)[C@H]2O)[C@H]1NC(C)=O (stereo partly drawn) [(2), β-D-Galp-(1-3)- -D-GalNAc-(1-0)-Me]",reduction of the number of adhering bacteria,[3],did not significantly effect adherence
CC(=O)N[C@H]1C(O)O[C@H](CO)[C@@H](O[C@@H]2O[C@H](CO)[C@H](O)[C@H](O)[C@H]2O)[C@@H]1O (stereo partly drawn) [β-D-Galp-(1-4)-D-GNAc],removal of the bacterium from the surface,[4],effective removal of the bacterium from the surface
"CO[C@@H]1O[C@H](CO)[C@H](O)[C@H](O[C@@H]2O[C@H](CO)[C@H](O)[C@H](O)[C@H]2O)[C@H]1NC(C)=O [β-D-Galp-(1-3)-β-D-GalNAcp-(1-O)Me, Methyl 2-acetamido-2-deoxy-3-0-(B-D-galaetopyranosyl)--β-D-galactopyranoside]",minimal effective concentration,[1],> 2000 µg/mL
CO[C@@H]1O[C@H](CO)[C@H](O)[C@H](O[C@@H]2O[C@H](CO)[C@H](O)[C@H](O)[C@H]2O)[C@H]1NC(C)=O [β-D-Galp-(1-3)-β-D-GalNAc-(1-O)Me],minimal effective concentration,[2],> 2000 µg/mL
OC[C@H]1O[C@@H](O[C@H]2[C@@H](O)[C@@H](CO)OC(O)[C@@H]2O)[C@H](O)[C@@H](O)[C@H]1O (stereo partly drawn) [β-D-Galp-(1-3)-D-Gal],minimal effective concentration,[1],> 5000 µg/mL
OC[C@H]1O[C@@H](O[C@H]2[C@H](O)[C@@H](O)C(O)O[C@@H]2CO)[C@H](O)[C@@H](O)[C@H]1O (stereo partly drawn) [β-D-Galp-(1-4)-D-Glc],minimal effective concentration,[1],> 5000 µg/mL
"COC1O[C@H](CO)[C@H](O)[C@H](O[C@@H]2O[C@H](CO)[C@H](O)[C@H](O)[C@H]2O)[C@H]1NC(C)=O (stereo partly drawn) [(1), β-D-Galp-(1-3)- -D-GalNAc-(1-0)-Me]",effect on adherence,[3]; 0.5 mg/ml oligosaccharide,did not significantly effect adherence
same,reduction of the number of adhering bacteria,[3]; 45 min,87
same,reduction of the number of adhering bacteria,[5]; 0.5 mg/ml oligosaccharide,about 15%
same,reduction of the number of adhering bacteria,[5]; 5 mg/ml oligosaccharide,90%
CC(=O)N[C@H]1C(O)O[C@H](CO)[C@H](O)[C@@H]1O[C@@H]1O[C@H](CO)[C@H](O)[C@H](O)[C@H]1O (stereo partly drawn) [β-D-Galp-(1-3)-D-GalNAc],minimal effective concentration,[1],800 µg/mL
same,minimal effective concentration,[2],900 µg/mL
